Data as given in patent US8492405B2, “Glucokinase-activating fused heterocyclic compounds and methods of treating diabetes and obesity” (Takeda Pharmaceutical Company Limited, priority 2006, dated 2013).

Legend:
[1] = target: T1, GST-hLGK1 (human liver type GK) (Homo sapiens, UniProt P35557); assay: Determination of GK activity value (Mant-ATP/Mant-ADP capillary electrophoresis); type: biochemical; conditions: GK activation; GST-hLGK1, D-glucose, 37° C. for 60 min
T1 construct: made in house; host or cells: Escherichia coli BL21
T1 sequence (P35557 1-464 isoform P35557-3): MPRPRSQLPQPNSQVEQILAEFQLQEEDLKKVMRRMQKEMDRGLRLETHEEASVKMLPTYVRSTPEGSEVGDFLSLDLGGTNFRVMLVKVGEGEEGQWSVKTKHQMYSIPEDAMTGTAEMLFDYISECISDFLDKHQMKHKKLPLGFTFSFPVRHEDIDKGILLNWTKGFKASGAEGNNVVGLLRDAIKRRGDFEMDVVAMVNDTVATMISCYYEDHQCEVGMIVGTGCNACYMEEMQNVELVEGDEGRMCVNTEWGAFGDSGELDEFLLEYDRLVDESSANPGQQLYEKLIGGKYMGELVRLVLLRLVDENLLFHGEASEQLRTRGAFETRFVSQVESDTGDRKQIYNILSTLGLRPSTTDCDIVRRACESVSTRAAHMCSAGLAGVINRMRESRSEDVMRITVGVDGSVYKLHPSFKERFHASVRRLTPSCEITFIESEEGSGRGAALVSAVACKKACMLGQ
Procedure: A solution (5 μL) of test compound in 50% dimethyl sulfoxide was added to each well of 384 well black plate (Nalge Nunc International K.K.). Then, a solution (35 μL) obtained by diluting GST-hLGK1 obtained in Reference Example 2A with measurement buffer (containing 50 mM HEPES (pH 7.4), 200 mM KCl, 5 mM MgCl2, 2.5 mM DTT and 50 μM 2′-(or -3′)—O—(N-methylanthraniloyl) adenosine 5′-triphosphate (Mant-ATP) (Jena Bioscience GmbH)) to 6 μg/mL was added to each well.
Each well was stood at 37° C. for 10 min, and 25 mM D-glucose solution (10 μL) was added to start the reaction.
Each well after the reaction was stood at 37° C. for 60 min, and the reaction was quenched by adding 25 μL of a quenching solution (containing 200 mM HEPES (pH 7.4), 20 mM MgCl2, 200 mM EDTA, 0.03% Triton-X 100, 0.3% Coating 3 reagent (Caliper Life Sciences, Inc.)).
2′-(or -3′)-O—(N-methylanthraniloyl)adenosine 5′-triphosphate (Mant-ATP, substrate) and Mant-ADP (reaction resultant product) were separated from each well after the reaction by a microchip type capillary electrophoresis apparatus 250 HTS (Caliper Life Sciences, Inc.). The reaction rate [(reaction resultant product peak height)/(reaction resultant product peak height+substrate peak height)×100(%)] was calculated from the ratio of the substrate peak height and reaction resultant product peak height obtained by fluorescence detection (excitation wavelength 355 nm, measurement wavelength 460 nm) and used as the index of GK activity.
As a control group, the reaction rate was calculated in the same manner as above except that “solution in 50% dimethyl sulfoxide (free of a test compound)” was used instead of “solution of test compound in 50% dimethyl sulfoxide”.
Using the percentage obtained by subtracting the reaction rate of the control group from the reaction rate of the well added with the test compound (test compound addition group) as a GK activation value of the test compound, a concentration dependency curve of the test compound was drawn, and the concentration of the test compound at the middle point between the maximum activity value of the test compound addition group and the activity value of the control group was taken as an EC50 value.

SMILES | melting point | EC50 [1]
CCOC(=O)c1cc2sc(C)c(N(C)C(=O)OCc3ccccc3)c2[nH]1 [Example 2, ethyl 3-{[(benzyloxy)carbonyl](methyl)amino}-2-methyl-4H-thieno[3,2-b]pyrrole-5-carboxylate] | 122 °C | –
CON(C)C(=O)c1cc2sc(C)c(N(C)S(=O)(=O)c3cccs3)c2[nH]1 [Example 13, N-methoxy-N,2-dimethyl-3-[methyl(2-thienylsulfonyl)amino]-4H-thieno[3,2-b]pyrrole-5-carboxamide] | 187 °C | –
CCOC(=O)C(=O)NNC(=O)c1cc2sc(C)c(N(C)S(=O)(=O)c3cccs3)c2[nH]1 [Example 9, ethyl [2-({2-methyl-3-[methyl(2-thienylsulfonyl)amino]-4H-thieno[3,2-b]pyrrol-5-yl}carbonyl)hydrazino](oxo)acetate] | 135 °C | –
CCOC(=O)c1cc2sc(C)c(N(C)S(=O)(=O)c3cccs3)c2[nH]1 [Example 3, ethyl 2-methyl-3-[methyl(2-thienylsulfonyl)amino]-4H-thieno[3,2-b]pyrrole-5-carboxylate] | 161 °C | –
CCOC(=O)c1cc2c([nH]1)c(N(C)S(=O)(=O)c1cccs1)cn2CC [Example 15, ethyl 4-ethyl-6-[methyl(2-thienylsulfonyl)amino]-1,4-dihydropyrrolo[3,2-b]pyrrole-2-carboxylate] | 122 °C | –
CCn1cc(N(C)S(=O)(=O)c2cccs2)c2[nH]c(C3=NCCS3)cc21 [Example 17, N-[5-(4,5-dihydro-1,3-thiazol-2-yl)-1-ethyl-1,4-dihydropyrrolo[3,2-b]pyrrol-3-yl]-N-methylthiophene-2-sulfonamide] | 163 °C | 350 nM
CCOC(=O)c1cc2nc(C)n(Cc3ccccc3)c2[nH]1 [Example 1, ethyl 3-benzyl-2-methyl-3,4-dihydropyrrolo[2,3-d]imidazole-5-carboxylate] | 193 °C | 3600 nM
CCOC(=O)c1cc2c([nH]1)c(N(C)S(=O)(=O)c1cccs1)cn2Cc1ccccc1 [Example 18, ethyl 4-benzyl-6-[methyl(2-thienylsulfonyl)amino]-1,4-dihydropyrrolo[3,2-b]pyrrole-2-carboxylate] | 120 °C | 430 nM

More lines, now with the values ahead:

melting point | EC50 [1] | SMILES
222 °C | – | Cc1sc2cc(C(=O)NCC3(SCc4ccccc4)CCNCC3)[nH]c2c1N(C)S(=O)(=O)c1cccs1 [Example 6, N-{[4-(benzylthio)piperidin-4-yl]methyl}-2-methyl-3-[methyl(2-thienylsulfonyl)amino]-4H-thieno[3,2-b]pyrrole-5-carboxamide]
209 °C | – | CCOC(=O)c1nnc(-c2cc3sc(C)c(N(C)S(=O)(=O)c4cccs4)c3[nH]2)s1 [Example 10, ethyl 5-{2-methyl-3-[methyl(2-thienylsulfonyl)amino]-4H-thieno[3,2-b]pyrrol-5-yl}-1,3,4-thiadiazole-2-carboxylate]
140 °C | 74 nM | Cc1sc2cc(C3=NCCS3)[nH]c2c1N(C)S(=O)(=O)c1cccs1 [Example 5, N-[5-(4,5-dihydro-1,3-thiazol-2-yl)-2-methyl-4H-thieno[3,2-b]pyrrol-3-yl]-N-methylthiophene-2-sulfonamide]
185 °C | – | COC(OC)C1CN=C(c2cc3sc(C)c(N(C)S(=O)(=O)c4cccs4)c3[nH]2)S1 (centres unmarked) [Example 12, N-{5-[5-(dimethoxymethyl)-4,5-dihydro-1,3-thiazol-2-yl]-2-methyl-4H-thieno[3,2-b]pyrrol-3-yl}-N-methylthiophene-2-sulfonamide]
220 °C | – | CC(=O)c1cc2sc(C)c(N(C)S(=O)(=O)c3cccs3)c2[nH]1 [Example 14, N-(5-acetyl-2-methyl-4H-thieno[3,2-b]pyrrol-3-yl)-N-methylthiophene-2-sulfonamide]
231 °C | 160 nM | CC(=O)N1CCC2(CC1)CN=C(c1cc3sc(C)c(N(C)S(=O)(=O)c4cccs4)c3[nH]1)S2 [Example 8, N-[5-(8-acetyl-1-thia-3,8-diazaspiro[4.5]deca-2-en-2-yl)-2-methyl-4H-thieno[3,2-b]pyrrol-3-yl]-N-methylthiophene-2-sulfonamide]
196 °C | – | Cc1sc2cc(C3=NCC4(CCNCC4)S3)[nH]c2c1N(C)S(=O)(=O)c1cccs1 [Example 7, N-methyl-N-[2-methyl-5-(1-thia-3,8-diazaspiro[4.5]deca-2-en-2-yl)-4H-thieno[3,2-b]pyrrol-3-yl]thiophene-2-sulfonamide]
